Entries after “also recorded” stand apart in the source; their conditions may differ.

For this experiment, the system named is TPA-induced edema of mouse ears. Description: TPA-induced mouse ear edema assay of quercetin-3-O-(6″-benzoyl)-β-galactoside (Example 3). It is filed as in vivo, mouse (CD-1 female). The settings on record: topical, purified compound. The procedure:
The anti-inflammatory activity of quercetin-3-O-(6″-benzoyl)-β-galactoside (Peak 19) was tested in vivo with the 12-O-tetradecanoylphorbol-13-acetate (TPA)-induced mouse ear edema assay. Each of the treatments was topically applied to both ears of at least five CD-1 female mice. Treatments included application of either acetone or curcumin controls or the test extract in 20 μl of acetone twenty minutes prior to application of 1.5 nmol of TPA in acetone. After 7 hours post-treatment, mice were sacrificed and 6 mm diameter ear punch biopsies were taken and weighed. The ratio of the difference in the weight of ear punches between TPA treated groups receiving pretreatments of acetone and the test extract, respectively, to the difference in the weight of ear punches between acetone pretreated groups subsequently treated with TPA and acetone, respectively, indicates the degree of anti-inflammatory activity of the test extract.

With `O=C(OC[C@H]1O[C@@H](Oc2c(-c3ccc(O)c(O)c3)oc3cc(O)cc(O)c3c2=O)[C@H](O)[C@@H](O)[C@H]1O)c1ccccc1` [quercetin-3-O-(6″-benzoyl)-β-galactoside], the “anti-inflammatory activity in the TPA-induced mouse ear edema assay (in words)” value is listed as “potent anti-inflammatory agent; also recorded: highly effective inhibitor of inflammation”.

For the origin of these results see patent US7270837B2, “Anti-inflammatory cranberry flavonol extract preparations” (Rutgers, The State University of New Jersey, priority 2003, dated 2007).
